Data from ChEMBL document CHEMBL1138245, “Discovery of N1-(6-chloroimidazo[2,1-b][1,3]thiazole-5-sulfonyl)tryptamine as a potent, selective, and orally active 5-HT(6) receptor agonist” (J Med Chem, 2007).

Assays:
[1] = target: T1, 5-hydroxytryptamine receptor 6 (Homo sapiens, UniProt P50406); experiment: Displacement of [3H]LSD from human 5HT6 receptor expressed in HeLa cells; type: cell-based
[2] = target: T1, 5-hydroxytryptamine receptor 6; experiment: Agonist activity at human 5HT6 receptor expressed in HeLa cells assessed as cAMP production; type: functional, cell-based

T1 sequence (P50406 whole entry): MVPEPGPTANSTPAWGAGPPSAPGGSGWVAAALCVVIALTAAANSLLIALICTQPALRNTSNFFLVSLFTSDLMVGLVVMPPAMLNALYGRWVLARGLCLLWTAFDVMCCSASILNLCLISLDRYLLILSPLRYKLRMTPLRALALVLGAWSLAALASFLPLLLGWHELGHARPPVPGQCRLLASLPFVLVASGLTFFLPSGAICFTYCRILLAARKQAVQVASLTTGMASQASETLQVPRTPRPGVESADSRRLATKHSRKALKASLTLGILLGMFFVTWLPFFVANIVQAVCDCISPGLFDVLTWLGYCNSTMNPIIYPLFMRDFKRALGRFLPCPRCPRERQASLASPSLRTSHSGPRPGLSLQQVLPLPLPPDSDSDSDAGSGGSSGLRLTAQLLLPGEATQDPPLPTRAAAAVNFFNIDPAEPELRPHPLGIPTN

For `NCCc1cn(S(=O)(=O)c2ccc(N)cc2)c2ccccc12`, the Ki [1] was 1 nM, the EC50 [2] was 91 nM and the Emax [2] was 73%.
